Values after ≈ are worked out from the molar mass of the structure shown.
Columns and labels:
Format in all cases: cell-based
[1] = tested on: dengue virus type-2 (DENV-2); test: Inhibition of DENV-2 attachment to host cells, baicalein added simultaneously with virus
Method: (§1) In order to determine the prophylactic anti-dengue activity of baicalein, different concentrations of baicalein (6.25 μg/ml, 12.50 μg/ml, 25.0 μg/ml, and 50.0 μg/ml) were added to the Vero cell monolayers five hours before adding virus. After five hours of pre-infection treatment, the cells were washed twice with phosphate-buffered saline (PBS). Then, 200 FFU (focus-forming units) of dengue virus type-2 (DENV-2) was inoculated to the cells to produce infected cells. The infected cells were incubated at 37° C. for one hour. Then the infected cells were washed two times with PBS to eliminate the unadsorped viruses. Growth medium (the growing medium is but not limited to Eagle's minimal essential medium; EMEM) was supplemented with 2% fetal bovine serum (FBS), 1 mM non-essential amino acid solution, 1 mM L-glutamine solution, and 1.5% carboxymethyl cellulose (CMC) solution) was added to the infected cells in the microplate. The microplate was incubated at 37° C. for four days. The number of viral foci formed and the viral RNA level were determined. The prophylactic activity of baicalein against DENV-2 was measured by the decrease in the number of viral foci and reduction of viral RNA synthesis. The number of DENV-2 foci was counted using a stereomicroscope and the titer of virus was expressed as FFU. The percentage of foci reduction (RF %) compared against controls was calculated as follows: RF (%)=(C−T)×100/C, where, C is the mean of the number of foci for negative control (without baicalein) and T is the mean of the number of foci in treated wells. Reduction in the number of viral foci was further verified using quantitative RT-PCR (qRT-PCR) which determine the copy number of dengue virus specific RNA. The same procedure was repeated to Vero cells which were treated with only virus suspension without baicalein (non-treated cells) and this served as the untreated control.
Inhibition of DENV-2 attachment to host cells was evaluated by adding different concentrations (3.12 μg/ml, 6.25 μg/ml, 12.5 μg/ml, 25.0 μg/ml, and 50.0 μg/ml) of baicalein to Vero cells simultaneously with 200 FFU DENV-2. Then, the infected Vero cells were incubated at 37° C. for one hour in the presence of the respective concentration of baicalein. Following after, the infected Vero cells were washed two times using sterile PBS. Growth medium supplemented with 2% fetal bovine serum (FBS), 1 mM non-essential amino acid solution, 1 mM L-glutamine solution, and 1.5% carboxymethyl cellulose (CMC) solution) was added to the infected cells in the microplate. […] The number of viral foci formed and the viral RNA level were determined. The amount of viral RNA synthesis was determined using quantitative real time polymerase chain reaction amplification (qRT-PCR).

[2] = tested on: dengue virus type-2 (DENV-2); test: Antiviral activity on DENV-2 replication, baicalein added post-infection
Method: as §1, with “The same procedure was repeated to Vero cells which were treated with only virus suspension without baicalein (non-treated cells) and this served as the untreated control.” left out
In order to evaluate the antiviral activity of baicalein after virus attachment to cells, virus inoculum consisting of 200 FFU DENV-2 was added to the monolayer Vero cells and the virus was allowed to adsorp to the Vero cells for one hour at a temperature of 37° C. […] Then, the number of viral foci and viral RNA level were measured.

[3] = tested on: dengue virus type-2 (DENV-2); test: Direct virucidal activity against DENV-2
Method: as §1, with “The same procedure was repeated to Vero cells which were treated with only virus suspension without baicalein (non-treated cells) and this served as the untreated control.” left out
In order to determine the direct virucidal activity of baicalein against DENV-2, DENV-2 suspension containing 200 FFU was incubated with different concentrations of baicalein (1.56 μg/ml, 3.12 μg/ml, 6.25 μg/ml, 12.50 μg/ml, 25.0 μg/ml) at 37° C. for two hours to produce a treated viral suspension. […] The number of viral foci formed and the viral RNA level were determined.

[4] = tested on: Japanese encephalitis virus; test: Antiviral activity on Japanese encephalitis virus replication, baicalein added post-infection; settings: 50 μg/ml, added post-infection to Vero cells, two days, vs non-treated cells
Method: In order to evaluate the antiviral activity of baicalein after virus attachment to cells, virus inoculum consisting of 200 FFU JE was added to the monolayer Vero cells and the virus was allowed to adsorp to the Vero cells for one hour at a temperature of 37° C. Unadsorped viruses were removed by rinsing the Vero cells with sterile PBS for two times. Different concentrations of baicalein (12.5 μg/ml, 25.0 μg/ml, 50.0 μg/ml and 100.0 μg/ml) were mixed with 1.5% CMC containing cell-growth medium supplemented with 2% FBS respectively before incubated at 37° C. for two days. Then, the number of viral foci was determined.

[5] = tested on: dengue virus type-2 (DENV-2); test: Prophylactic anti-dengue activity, pre-treatment of Vero cells (foci reduction and qRT-PCR)
Method: as §1

[6] = 50 μg/ml, added after virus adsorption to Vero cells, four days, vs non-treated cells
[7] = 12.5 μg/ml, DENV-2 suspension incubated with baicalein at 37° C. for two hours before infecting Vero cells

O=c1cc(-c2ccccc2)oc2cc(O)c(O)c(O)c12 [baicalein, 5,6,7-Trihydroxyflavone]
decrease in level of DENV-2 RNA production ([1]; 25 μg/ml, added simultaneously with DENV-2 to Vero cells, qRT-PCR, vs non-treated cells): 90.3%±1.6 | reduction in number of dengue virus foci formed ([1]; 25 μg/ml, added simultaneously with DENV-2 to Vero cells, vs non-treated cells): 76.6% | decrease in DENV-2 RNA level at 50 μg/ml compared with 25 μg/ml ([1]; 50 μg/ml, added simultaneously with DENV-2): Higher decrease in RNA level was observed | IC50 ([1]; Dengue virus, DENV2, Vero): 7.14 µg/mL (≈ 26.4 µM) | decrease in level of DENV-2 RNA production [2, 6]: 84.9%±2.15 | reduction in number of dengue virus foci formed [2, 6]: 78.3% | IC50 ([2]; Dengue virus, DENV2, Vero): 6.46 µg/mL (≈ 23.9 µM) | decrease in level of DENV-2 RNA production [3, 7]: 99.2%±0.4 | reduction in number of dengue virus foci formed [3, 7]: 97.93% | IC50 ([3]; Dengue virus, DENV2, 2 h): 1.55 µg/mL (≈ 5.74 µM) | reduction in number of Japanese encephalitis virus foci formed [4]: > 90% | reduction in level of dengue virus type-2 RNA production ([5]; 50 μg/ml, Vero cells pre-treated five hours before infection, qRT-PCR, vs non-treated cells): 39.5%±0.8 | reduction in number of dengue virus foci formed ([5]; 50 μg/ml, Vero cells pre-treated five hours before infection, vs non-treated cells): ~37% | IC50 ([5]; Dengue virus, DENV2, Vero, read-out: IC50 in pretreatment of cells): 109 µg/mL (≈ 403 µM)

— patent US9192640B2, “Antiviral composition against flavivirus” (University Malaya, priority 2012, dated 2015)
